Measured values from a compilation of properties of binary mixtures (doi:10.1016/j.molliq.2019.110987).

Assay: xn = mol fraction of the nth substance listed
Settings: 100 kPa, x2 = 0

- speed of sound (293.15 K): 1484.1 m/s
- viscosity (293.15 K): 0.867 mPa·s
- speed of sound (298.15 K): 1468.9 m/s
- viscosity (298.15 K): 0.813 mPa·s
- speed of sound (303.15 K): 1447.2 m/s
- viscosity (303.15 K): 0.764 mPa·s
- speed of sound (313.15 K): 1410.2 m/s
- viscosity (313.15 K): 0.684 mPa·s
- speed of sound (318.15 K): 1391.2 m/s
- viscosity (318.15 K): 0.663 mPa·s
SMILES: CN(C)C=O + CCCC[P+](C)(CCCC)CCCC.COS(=O)(=O)[O-]
